# Source: article PMC12373846, “Hemoglobin as a pseudoperoxidase and drug target for oxidative stress-related diseases” (Signal Transduction and Targeted Therapy, 2025)
# Legend:
# [1] = tested on: primary cultured hippocampal astrocytes; test: DCFDA intracellular ROS assay; format: cell-based, mouse; settings: for Aβ-induced ROS level (DCFDA), normalized to control: Aβ 5μM + compound 10μM, Fig. 3e; for relative ROS level (DCFDA): Aβ42+KDS12025 10 μM, Fig. 6c
# Procedure: Primary hippocampal astrocytes were obtained from postnatal day 0‒2 (P0‒2) C57BL/6 mice as previously described.[73] The hippocampal tissue was dissected free of meninges, minced, and dissociated into a single-cell suspension by trituration. The cells were grown in Dulbecco’s modified Eagle’s medium supplemented with D-glucose (4500 mg/L), L-glutamine, sodium pyruvate (110 mg/L), 10% heat-inactivated horse serum, 10% heat-inactivated fetal bovine serum, and 1000 U/ml penicillin‒streptomycin. The cells were maintained at 37 °C in a humidified atmosphere containing 5% CO2.
# The intracellular ROS levels of astrocytes were determined via 2′,7′- dichlorodihydrofluorescein diacetate (DCFDA; Thermo Fisher). Primary cultured hippocampal astrocytes were seeded into black 96-well plates (Ibidi) at a density of 5 × 10⁴ cells per well. The plates were incubated with oligomerized Aβ42 in the presence of KDS12008, KDS12017, KDS12025, HTPEB (10 µM each), and sodium pyruvate (1 mM). These cells were subsequently washed with Ca^2+ and Mg^2+-containing PBS, followed by the application of 30 µM DCFDA and incubation at 37 °C for 30 min in a dark incubator. The mean fluorescence intensity of each well was measured via iD5 microplate readers at 485 nm and 530 nm. The fluorescence values were calculated by subtracting the blank readings and normalizing them to those of the control group.
# HRP = molecular target: T1, HRP (Armoracia rusticana, UniProt P00433); test: H2O2 assay with HRP (HRP-EC50); format: biochemical, horseradish; settings: Tables S2, S3; read-out: HRP-EC50
# T1 sequence (P00433 31-353): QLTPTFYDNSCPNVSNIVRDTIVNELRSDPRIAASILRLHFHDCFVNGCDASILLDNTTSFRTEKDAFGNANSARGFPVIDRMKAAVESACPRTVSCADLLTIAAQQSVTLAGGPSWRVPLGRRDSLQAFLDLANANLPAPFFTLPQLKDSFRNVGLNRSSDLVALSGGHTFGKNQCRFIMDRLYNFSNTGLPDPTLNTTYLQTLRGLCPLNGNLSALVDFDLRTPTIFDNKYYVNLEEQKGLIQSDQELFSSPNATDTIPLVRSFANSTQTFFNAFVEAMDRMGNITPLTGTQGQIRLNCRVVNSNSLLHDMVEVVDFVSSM
# Procedure: Hb (Sigma‒Aldrich, H7379), H2O2 (Sigma‒Aldrich, H1009), and Amplex Red reagents (Invitrogen, A12222) were obtained for the study. A 4 μM H2O2 solution was prepared in 50 mM sodium phosphate buffer (pH 7.2). Then, 49 μl of this mixture was mixed with 1 μl of the test compound in DMSO or distilled water. The mixture was combined with an assay mixture of Amplex Red reagent (20 mM stock to 0.1 mM) and HRP (200 U/ml stock to 0.2 U/ml) and added to the wells at 50 μl/well. After a 60-min incubation at 37 °C, resorufin production was quantified via a microplate fluorescence reader (SpectraMax iD5, Molecular Devices) at ex/em = 535/580 nm. The H2O2-decomposing activity was estimated via the following equation: (sample fluorescence-blank fluorescence)/(control […]-blank fluorescence) × 100. For the ROS-Glo assay, the H2O2 substrate solution and ROS-Glo detection solution were prepared according to the manufacturer’s instructions. 10 μM H2O2 and drugs were prepared as in the Amplex Red assay, with HRP, Hb, CAT, or GPx added as needed. The mixture was added to the wells at 100 μl/well and incubated for 60 min at 37 °C. H2O2 substrate solution was added, and the mixture was incubated at room temperature for 30 min. After the H2O2 substrate solution was added and incubated at room temperature for 30 min, the ROS-Glo detection solution was added, and the mixture was incubated for 15 min. Luminescence was measured via iD5 microplate readers. The H2O2-decomposing activity was estimated via the following equation: (sample luminescence-blank luminescence)/(control luminescence-blank luminescence) × 100. The U/ml was calculated on the basis of the amount of H2O2 reduced by Hb during the reaction, using μg/ml and U/mg.
Compound,"Aβ-induced ROS level (DCFDA), normalized to control [1]",relative ROS level (DCFDA) ([1]; Hbβ-shRNA astrocytes),relative ROS level (DCFDA) ([1]; Sc-shRNA astrocytes),EC50 (HRP) [µM]
"CNc1ccc(NCCc2ccccc2OC)cc1.Cl [KDS12025, N^1-(2-methoxyphenethyl)-N^4-methylbenzene-1,4-diamine hydrochloride salt]",110.3±5.804,134.1±5.185,105.8±2.173,0.529
"O=C(O)c1cc(NCCc2ccc(C(F)(F)F)cc2)ccc1O [HTPEB, 2-hydroxy-5-[2-(4-trifluoromethyl-phenyl)-ethylamino]-benzoic acid, reference compound]",112.0±8.321,,,1.52
"CN(C)c1ccc(NCCc2ccc(C(F)(F)F)cc2)cc1.Cl [KDS12008, N^1,N^1-dimethyl-N^4-(4-(trifluoromethyl)phenethyl)benzene-1,4-diamine hydrochloride salt]",96.78±7.989,,,0.795
"CNc1ccc(NCCc2ccc(C(F)(F)F)cc2)cc1.Cl [KDS12017, N^1-methyl-N^4-(4-(trifluoromethyl)phenethyl)benzene-1,4-diamine hydrochloride salt]",109.6±6.466,,,0.828
